{"source": "patent US12343326B2", "about": "“Psychoactive medicines and their use for treating psychiatric and neurological conditions and disorders” (Transcend Therapeutics, Inc., priority 2021, dated 2025)", "key": {"C57BL/6J mice": {"system": "C57BL/6J mice", "test": "Cued fear conditioning, extinction training and recall (Example 35)", "type": "in vivo, mouse", "experimental": "Methods: Cued fear conditioning was performed in C57BL/6J mice. On day 1, animals were placed in the chambers and presented with a training session (CS-US pairing). The training consisted of a 2-minute habituation followed by a 30-second, 80 dB tone; during the last 2 seconds of the tone animals received a 1 mA foot shock. This US-CS procedure occurred once for a total of one paired presentation of tone and shock. Freezing behavior (immobility) was recorded in 5-10-sec intervals during the session. Percent baseline freezing behavior was determined in the 2-minute habituation period. On day 3, animals were placed in context B, in which tactile and odor cues differed from context A. Following a 2 minute acclimation period animals received 4×30 sec presentations of the CS (tone) in the absence of the US (footshock), with a 45 sec interval between presentations. Freezing was recorded in 5-10-sec intervals to measure baseline freezing response to the altered context, and freezing response to each tone cue presentation. […] Freezing was recorded in 5-10-sec intervals to measure baseline freezing response to the altered context, and freezing response to each tone cue presentation."}, "5HT2A receptor": {"molecular_target": "T1, 5HT2A receptor (Homo sapiens, UniProt P28223)", "T1 construct": "beta-galactosidase enzyme fragment (PathHunter complementation tag); host or cells: PathHunter cell lines", "T1 sequence (P28223 whole entry, the tested form may be a part)": "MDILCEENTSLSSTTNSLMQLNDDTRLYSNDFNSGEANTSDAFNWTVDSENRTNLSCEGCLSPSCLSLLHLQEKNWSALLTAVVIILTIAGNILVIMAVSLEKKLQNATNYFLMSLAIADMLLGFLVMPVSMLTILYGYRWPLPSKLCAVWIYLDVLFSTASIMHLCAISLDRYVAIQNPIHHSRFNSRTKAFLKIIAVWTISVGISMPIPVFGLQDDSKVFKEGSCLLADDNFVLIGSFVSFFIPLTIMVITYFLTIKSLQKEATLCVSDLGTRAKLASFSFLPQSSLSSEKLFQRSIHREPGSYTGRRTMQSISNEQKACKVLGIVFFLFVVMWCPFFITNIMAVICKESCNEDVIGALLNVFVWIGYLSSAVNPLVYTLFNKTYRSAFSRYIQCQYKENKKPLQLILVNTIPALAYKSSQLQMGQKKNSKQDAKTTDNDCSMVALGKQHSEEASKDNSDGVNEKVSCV", "test": "GPCRmax screen, agonist mode", "type": "cell-based"}, "[1]": {"molecular_target": "serotonin transporter (SERT) (Rattus norvegicus, UniProt P31652)", "sequence (P31652 whole entry)": "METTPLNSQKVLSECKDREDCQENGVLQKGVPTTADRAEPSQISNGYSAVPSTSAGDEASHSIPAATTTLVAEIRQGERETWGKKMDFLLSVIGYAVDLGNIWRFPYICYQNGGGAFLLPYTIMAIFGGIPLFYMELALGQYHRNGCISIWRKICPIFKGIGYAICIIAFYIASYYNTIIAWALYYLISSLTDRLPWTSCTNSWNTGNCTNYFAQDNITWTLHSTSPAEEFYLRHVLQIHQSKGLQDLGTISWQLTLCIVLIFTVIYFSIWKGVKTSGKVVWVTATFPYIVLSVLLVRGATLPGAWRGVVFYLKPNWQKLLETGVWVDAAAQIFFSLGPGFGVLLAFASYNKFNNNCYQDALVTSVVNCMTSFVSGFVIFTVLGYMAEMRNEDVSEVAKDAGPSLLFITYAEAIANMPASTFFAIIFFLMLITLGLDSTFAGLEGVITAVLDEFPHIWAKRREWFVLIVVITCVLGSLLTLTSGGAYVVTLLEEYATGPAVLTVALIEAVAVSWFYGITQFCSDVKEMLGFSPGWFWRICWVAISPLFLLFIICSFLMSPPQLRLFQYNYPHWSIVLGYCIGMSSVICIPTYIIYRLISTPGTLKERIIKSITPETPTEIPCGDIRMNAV", "test": "[3H]5HT uptake saturation in rat brain synaptosomes with or without methylone", "type": "biochemical", "details": "two concentrations of methylone"}, "[2]": {"system": "gene expression in amygdala, frontal cortex, hippocampus", "test": "RNA-sequencing of brain areas after a single dose", "type": "in vivo, rat", "details": "10 mg/kg IP each"}, "[3]": {"system": "myelin basic protein (MBP)", "test": "Immunohistochemistry of myelin basic protein", "type": "in vivo, rat", "details": "10 mg/kg IP, 24 h", "experimental": "Immunohistochemistry: The in-life portion of the study was conducted at WuXi Apptec (Cranbury, NJ). Sectioning and staining of brains took place at Neuroscience Associates (NSA, Knoxville, TN). […] Brains were post-fixed in PFA before shipment to NSA for processing and staining. Hemisected brains were mounted, sectioned and stained using standard protocols with myelin-basic protein primary antibody (MBP SMI-99, 1:5000, Biolegend, San Diego, CA) and anti-mouse biotinylated secondary antibody (BA-2001, Vector Laboratories, Newark, CA). Slides were imaged using a Huron Digital Pathology TissueScope LE120 whole slide scanning system. 20× objective was used with a 0.4 μm/pixel resolution."}, "[4]": {"system": "rats with reserpine-induced pain sensitivity", "test": "Reserpine-induced fibromyalgia model, von Frey test", "type": "in vivo, rat", "details": "methylone 15 mg/kg IP, 30 min before testing, day 4 after reserpine", "experimental": "Reserpine (1 mg/kg/s.c.) is administered for 3 days to mimic chronic widespread pain and complex symptoms.\nIn this Example, male Sprague Dawley rats are tested in a behavioral model of FMA based on the protocol from Nakagura et al. (2009) Pain 146:26. This model uses three daily doses of reserpine (1 mg/kg, SC) or 0.5% acetic acid vehicle to reduce pain thresholds (i.e., increase pain perception) in the Von Frey Test (vFT, procedure outlined below).\nVon Frey Test (vFT) procedure: Increasing pain thresholds in this test are consistent with a reduction in pain perception. Prior to the start of dosing, rats are tested for their baseline mechanical pain threshold. For von Frey measurements, animals are placed into wire bottom cubicles with opaque Plexiglas walls, allowing access to the underside of their paws. Animals are habituated to this environment for at least 30 minutes before the start of the von Frey filament application. Static allodynia is measured using Semmes-Weinstein von Frey filaments (Stoelting, Wood Dale, IL). Mechanical allodynia is tested by touching the plantar surface of the animals' left and right hind paws with von Frey filaments which deliver a calibrated amount of force. Each von Frey filament is presented perpendicularly to the plantar surface for approximately 6 seconds of constant application in either ascending or descending strength in a modified up-and-down method (Chaplan et al. (1994) J Neurosci. Meth. 53:55). Stimulation is presented at intervals of several seconds, allowing for apparent resolution of any behavioral responses to previous stimuli. A positive response is noted if the paw is sharply withdrawn. Flinching immediately upon removal of the hair is also considered a positive response. […]\nVonFrey measurements: Animals were placed into wire bottom cubicles with opaque Plexiglas walls, allowing access to the underside of their paws. […] Static allodynia was measured using Semmes-Weinstein von Frey filaments (Stoelting, Wood Dale, IL). […] The average hindpaw thresholds were determined 60-min post-injection. […]"}, "[5]": {"test": "Excipient compatibility study (appearance, assay, related substances)", "type": "physicochemical", "details": "closed vial", "experimental": "Analyses were conducted at t=0, 2, 4 and 8 weeks for appearance, assay, and related substances for samples stored in closed vials at 25° C./60% RH and 40° C./75% RH.\nExcipient Compatibility Sample Mixtures: The excipients and API were dispensed individually by weight into 20 mL clear borosilicate (type I) glass vials to fill the appropriate weights as listed in Table 12. Table 12 lists mixtures of API with varied excipients and a stand-alone control sample of API alone. Each excipient mixture sample preparation was conducted using a clean spatula to mix the vial ingredients for 30-60 seconds. Each vial was properly labeled with the description and storage conditions. One vial was used for testing at the initial (t=0) time point. Three vials, closed, were placed at each storage condition to allow sampling at each time point and one vial, closed, was placed at each storage condition for overage."}}}
{"smiles": "CNC(C)C(=O)c1ccc2c(c1)OCO2", "note": "(stereo not drawn) [methylone, 3,4-methylenedioxy-N-methylcathinone]", "values": [{"measurement": "fear extinction training on day 3", "setting": "C57BL/6J mice; all doses: 10, 20 or 30 mg/kg IP", "value": "significantly improved fear extinction training"}, {"measurement": "effect on fear extinction training and testing", "setting": "C57BL/6J mice; methylone 30 mg/kg IP 30 min before extinction training on Day 3", "value": "rapid, robust and long-lasting beneficial effect"}, {"measurement": "agonist % activity", "setting": "5HT2A receptor; 1 or 10 mM, threshold 30%", "value": "no agonist or antagonist activity"}, {"measurement": "activity at 10 µM", "setting": "5HT2A receptor; HTR2A, Agonist mode, 10 uM", "value": 1.4, "unit": "%"}, {"measurement": "activity at 1 µM", "setting": "5HT2A receptor; HTR2A, Agonist, 1 uM", "value": -0.1, "unit": "%"}, {"measurement": "type of interaction at the SERT", "setting": "[1]; [3H]5HT saturation curves", "value": "competitive"}, {"measurement": "effect on Bmax of [3H]5HT uptake", "setting": "[1]", "value": "no decrease in Bmax"}, {"measurement": "effect on Kd of [3H]5HT uptake", "setting": "[1]", "value": "right shifted"}, {"measurement": "genes regulated by methylone that are also regulated by MDMA, amygdala", "setting": "[2]", "value": 87, "unit": "%"}, {"measurement": "MBP expression, basolateral nucleus of the amygdala, vs. vehicle", "setting": "[3]", "value": "significant reduction in MBP"}, {"measurement": "MBP expression, central nucleus of the amygdala, vs. vehicle", "setting": "[3]", "value": "significant reduction in MBP"}, {"measurement": "MBP expression, cortex (control region)", "setting": "[3]", "value": "No change in MBP"}, {"measurement": "paw withdrawal thresholds (von Frey)", "setting": "[4]", "value": "significantly increased paw withdrawal thresholds"}, {"measurement": "Assay (% Recovery)", "setting": "[5]; 4 Week 25° C./60% RH", "value": 100.3, "unit": "%"}, {"measurement": "Assay (% Recovery)", "setting": "[5]; 8 Week 40° C./75% RH", "value": 100.3, "unit": "%"}]}
